Test results from patent publication US9833497B2, “Human originated EGF domain proteins and use of the same” (CHENGDU SOURCEBIO LIMITED-LIABILITY COMPANY, priority 2013, dated 2017).

Columns and labels:
Assay type in all cases: cell-based
Klebsiella pneumonia = assay: MIC against Gram-negative bacteria: Klebsiella pneumonia; details: 5×10^5 CFU/mL; for MIC (μg/mL) K. pneumonia / MIC: K. pneumonia
How it was run: (§1)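 LB broth cultures at McFarland 0.5, spun down, resuspended, diluted to 5×10^5 CFU/mL final. Two-fold serial dilutions of purified human EGF domain proteins, triplicate. 37° C, 175 rpm shaking. Endpoint: no visible growth.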

Citrobacter diversus = assay: MIC against Gram-negative bacteria: Citrobacter diversus; details: 5×10^5 CFU/mL; for MIC (μg/mL) C. diversus / MIC: C. diversus
How it was run: as §1

Moraxella catarrhalis = assay: MIC against Gram-negative bacteria: Moraxella catarrhalis; details: 5×10^5 CFU/mL; for MIC (μg/mL) M. catarrhalis / MIC: M. catarrhalis
How it was run: as §1

Proteus vulgaris = assay: MIC against Gram-negative bacteria: Proteus vulgaris; details: 5×10^5 CFU/mL; for MIC (μg/mL) P. vulgaris / MIC: P. vulgaris
How it was run: as §1

Serratia marcescens = assay: MIC against Gram-negative bacteria: Serratia marcescens; details: 5×10^5 CFU/mL; for MIC (μg/mL) S. marcescens / MIC: S. marcescens
How it was run: as §1

Enterobacter cloacae = assay: MIC against Gram-negative bacteria: Enterobacter cloacae; details: 5×10^5 CFU/mL; for MIC (μg/mL) E. cloacae / MIC: E. cloacae
How it was run: as §1

E. coli BL21 = assay: MIC against Gram-negative bacteria: E. coli BL21; details: 5×10^5 CFU/mL; for MIC (μg/mL) E. coli BL21 / MIC: E. coli BL21
How it was run: as §1

Aeromonas hydrophila = assay: MIC against Gram-negative bacteria: Aeromonas hydrophila; details: 5×10^5 CFU/mL; for MIC (μg/mL) A. hydrophila / MIC: A. hydrophila
How it was run: as §1

E. coli DH5α = assay: Antibacterial activity: MIC and growth curve against E. coli DH5α in 96-well plate; details: minimal inhibitory concentration against E. coli DH5α; 96-well plate, 5×10^5 CFU/mL, 37° C., judged after 8 h
How it was run: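 MIC taken as lowest protein level with no bacterial growth, tracked by A600 every 30 min during 37 °C, 175 rpm culture. Two-fold protein series 50-12.5 μg/mL final, triplicate wells, against 5×10^5 CFU/mL of LB-washed mid-log cells.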

Proteus mirabilis = assay: MIC against Gram-negative bacteria: Proteus mirabilis; details: 5×10^5 CFU/mL; for MIC (μg/mL) P. mirabilis / MIC: P. mirabilis
How it was run: as §1

Pseudomonas aeruginosa = assay: MIC against Gram-negative bacteria: Pseudomonas aeruginosa; details: 5×10^5 CFU/mL; for MIC (μg/mL) P. aeruginosa / MIC: P. aeruginosa
How it was run: as §1

[1] = 10 h cultivation at 37° C., two-fold serial dilution

Substance: PRT256 (CHLHARCVSQEGVARCRCLDGFEGDGFSC; listed as Homo sapiens)
- MIC (μg/mL) K. pneumonia (Klebsiella pneumonia; 10 h cultivation at 37° C.): 12.5 µg/mL
- MIC (μg/mL) C. diversus (Citrobacter diversus; 10 h cultivation at 37° C.): 25 µg/mL
- MIC (μg/mL) M. catarrhalis (Moraxella catarrhalis; 10 h cultivation at 37° C.): 12.5 µg/mL
- MIC (μg/mL) P. vulgaris (Proteus vulgaris; 10 h cultivation at 37° C.): 12.5 µg/mL
- MIC (μg/mL) S. marcescens (Serratia marcescens; 10 h cultivation at 37° C.): 25 µg/mL
- MIC (μg/mL) E. cloacae (Enterobacter cloacae; 10 h cultivation at 37° C.): 25 µg/mL
- MIC (μg/mL) E. coli BL21 (E. coli BL21; 10 h cultivation at 37° C.): 12.5 µg/mL
- MIC (μg/mL) A. hydrophila (Aeromonas hydrophila; 10 h cultivation at 37° C.): 12.5 µg/mL
- MIC (E. coli DH5α): 25 µg/mL
- MIC (μg/mL) P. mirabilis (Proteus mirabilis; 10 h cultivation at 37° C.): 25 µg/mL
- MIC (μg/mL) P. aeruginosa (Pseudomonas aeruginosa; 10 h cultivation at 37° C.): 25 µg/mL

Substance: PRT531 (CDCNLEGVLPEICDAHGRCLCRPGVEGPRCDTCRSGFYSFPICQA; listed as Homo sapiens)
- MIC against K. pneumonia (Klebsiella pneumonia; 96-well plate, 37° C., 10 h): 25 µg/mL
- MIC against C. diversus (Citrobacter diversus; 96-well plate, 37° C., 10 h): 50 µg/mL
- MIC against M. catarrhalis (Moraxella catarrhalis; 96-well plate, 37° C., 10 h): 12.5 µg/mL
- MIC against P. vulgaris (Proteus vulgaris; 96-well plate, 37° C., 10 h): 12.5 µg/mL
- MIC against S. marcescens (Serratia marcescens; 96-well plate, 37° C., 10 h): 50 µg/mL
- MIC against E. cloacae (Enterobacter cloacae; 96-well plate, 37° C., 10 h): 50 µg/mL
- MIC against E. coli BL21 (E. coli BL21; 96-well plate, 37° C., 10 h): 25 µg/mL
- MIC against A. hydrophila (Aeromonas hydrophila; 96-well plate, 37° C., 10 h): 12.5 µg/mL
- MIC (E. coli DH5α): 50 µg/mL
- MIC against P. mirabilis (Proteus mirabilis; 96-well plate, 37° C., 10 h): 50 µg/mL
- MIC against P. aeruginosa (Pseudomonas aeruginosa; 96-well plate, 37° C., 10 h): 12.5 µg/mL

Substance: PRT1142 (DVNKCKISPCLDEENCVYRTDGYNCLCAPGYTGINCE; listed as Homo sapiens)
- MIC K. pneumonia (Klebsiella pneumonia; [1]): 12.5 µg/mL
- MIC C. diversus (Citrobacter diversus; [1]): 50 µg/mL
- MIC M. catarrhalis (Moraxella catarrhalis; [1]): 25 µg/mL
- MIC P. vulgaris (Proteus vulgaris; [1]): 25 µg/mL
- MIC S. marcescens (Serratia marcescens; [1]): 50 µg/mL
- MIC E. cloacae (Enterobacter cloacae; [1]): 25 µg/mL
- MIC E. coli BL21 (E. coli BL21; [1]): 50 µg/mL
- MIC A. hydrophila (Aeromonas hydrophila; [1]): 25 µg/mL
- MIC (E. coli DH5α): 25 µg/mL
- MIC P. mirabilis (Proteus mirabilis; [1]): 12.5 µg/mL
- MIC P. aeruginosa (Pseudomonas aeruginosa; [1]): 25 µg/mL

Substance: PRT427 (DVNECETGVHRCGEGQVCHNLPGSYRCDCKAGFQRDAFGRGCI; listed as Homo sapiens)
- MIC (Klebsiella pneumonia; 10 h cultivation at 37° C.): 50 µg/mL
- MIC (Citrobacter diversus; 10 h cultivation at 37° C.): 25 µg/mL
- MIC (Moraxella catarrhalis; 10 h cultivation at 37° C.): 50 µg/mL
- MIC (Proteus vulgaris; 10 h cultivation at 37° C.): 12.5 µg/mL
- MIC (Serratia marcescens; 10 h cultivation at 37° C.): 25 µg/mL
- MIC (Enterobacter cloacae; 10 h cultivation at 37° C.): 25 µg/mL
- MIC (E. coli BL21; 10 h cultivation at 37° C.): 12.5 µg/mL
- MIC (Aeromonas hydrophila; 10 h cultivation at 37° C.): 12.5 µg/mL
- MIC (E. coli DH5α): 25 µg/mL
- MIC (Proteus mirabilis; 10 h cultivation at 37° C.): 25 µg/mL
- MIC (Pseudomonas aeruginosa; 10 h cultivation at 37° C.): 25 µg/mL

Substance: PRT424 (DINECVTDLHTCSRGEHCVNTLGSFHCYKALTCEPGYALKDGECE; listed as Homo sapiens)
- MIC (Klebsiella pneumonia; 10 h cultivation at 37° C.): 12.5 µg/mL
- MIC (Citrobacter diversus; 10 h cultivation at 37° C.): 25 µg/mL
- MIC (Moraxella catarrhalis; 10 h cultivation at 37° C.): 12.5 µg/mL
- MIC (Proteus vulgaris; 10 h cultivation at 37° C.): 50 µg/mL
- MIC (Serratia marcescens; 10 h cultivation at 37° C.): 25 µg/mL
- MIC (Enterobacter cloacae; 10 h cultivation at 37° C.): 25 µg/mL
- MIC (E. coli BL21; 10 h cultivation at 37° C.): 50 µg/mL
- MIC (Aeromonas hydrophila; 10 h cultivation at 37° C.): 50 µg/mL
- MIC (E. coli DH5α): 25 µg/mL
- MIC (Proteus mirabilis; 10 h cultivation at 37° C.): 25 µg/mL
- MIC (Pseudomonas aeruginosa; 10 h cultivation at 37° C.): 25 µg/mL

Substance: PRT236 (TKTSCAKCPPNASCVNNTHCTCNHGYTSGSGQKLFTFPLETCN; listed as Homo sapiens)
- MIC (μg/mL) K. pneumonia (Klebsiella pneumonia; 10 h cultivation at 37° C.): 12.5 µg/mL
- MIC (μg/mL) C. diversus (Citrobacter diversus; 10 h cultivation at 37° C.): 12.5 µg/mL
- MIC (μg/mL) M. catarrhalis (Moraxella catarrhalis; 10 h cultivation at 37° C.): 25 µg/mL
- MIC (μg/mL) P. vulgaris (Proteus vulgaris; 10 h cultivation at 37° C.): 25 µg/mL
- MIC (μg/mL) S. marcescens (Serratia marcescens; 10 h cultivation at 37° C.): 12.5 µg/mL
- MIC (μg/mL) E. cloacae (Enterobacter cloacae; 10 h cultivation at 37° C.): 12.5 µg/mL
- MIC (μg/mL) E. coli BL21 (E. coli BL21; 10 h cultivation at 37° C.): 12.5 µg/mL
- MIC (μg/mL) A. hydrophila (Aeromonas hydrophila; 10 h cultivation at 37° C.): 25 µg/mL
- MIC (E. coli DH5α): 12.5 µg/mL
- MIC (μg/mL) P. mirabilis (Proteus mirabilis; 10 h cultivation at 37° C.): 12.5 µg/mL
- MIC (μg/mL) P. aeruginosa (Pseudomonas aeruginosa; 10 h cultivation at 37° C.): 100 µg/mL

Substance: PRT691 (DINECDEAEAASPLCVNARCLNTDGSFRCICRPGFAPTHQPHHCA; listed as Homo sapiens)
- MIC K. pneumonia (Klebsiella pneumonia; 96-well plate, 37° C., 10 h): 50 µg/mL
- MIC C. diversus (Citrobacter diversus; 96-well plate, 37° C., 10 h): 50 µg/mL
- MIC M. catarrhalis (Moraxella catarrhalis; 96-well plate, 37° C., 10 h): 12.5 µg/mL
- MIC P. vulgaris (Proteus vulgaris; 96-well plate, 37° C., 10 h): 50 µg/mL
- MIC S. marcescens (Serratia marcescens; 96-well plate, 37° C., 10 h): 12.5 µg/mL
- MIC E. cloacae (Enterobacter cloacae; 96-well plate, 37° C., 10 h): 25 µg/mL
- MIC E. coli BL21 (E. coli BL21; 96-well plate, 37° C., 10 h): 50 µg/mL
- MIC A. hydrophila (Aeromonas hydrophila; 96-well plate, 37° C., 10 h): 12.5 µg/mL
- MIC (E. coli DH5α): 25 µg/mL
- MIC P. mirabilis (Proteus mirabilis; 96-well plate, 37° C., 10 h): 25 µg/mL
- MIC P. aeruginosa (Pseudomonas aeruginosa; 96-well plate, 37° C., 10 h): 12.5 µg/mL
